Paper PMC5501787, “Heliosterpenoids A and B, two Novel Jatrophane-Derived Diterpenoids with a 5/6/4/6 Ring System from Euphorbia helioscopia” (Scientific Reports, 2017)

Target: P-glycoprotein (ABCB1) (Homo sapiens, UniProt P08183)
Test: inhibition of P-gp-mediated adriamycin efflux in MCF-7/ADR cells
Format: cell-based

P-glycoprotein (ABCB1), sequence (P08183 whole entry): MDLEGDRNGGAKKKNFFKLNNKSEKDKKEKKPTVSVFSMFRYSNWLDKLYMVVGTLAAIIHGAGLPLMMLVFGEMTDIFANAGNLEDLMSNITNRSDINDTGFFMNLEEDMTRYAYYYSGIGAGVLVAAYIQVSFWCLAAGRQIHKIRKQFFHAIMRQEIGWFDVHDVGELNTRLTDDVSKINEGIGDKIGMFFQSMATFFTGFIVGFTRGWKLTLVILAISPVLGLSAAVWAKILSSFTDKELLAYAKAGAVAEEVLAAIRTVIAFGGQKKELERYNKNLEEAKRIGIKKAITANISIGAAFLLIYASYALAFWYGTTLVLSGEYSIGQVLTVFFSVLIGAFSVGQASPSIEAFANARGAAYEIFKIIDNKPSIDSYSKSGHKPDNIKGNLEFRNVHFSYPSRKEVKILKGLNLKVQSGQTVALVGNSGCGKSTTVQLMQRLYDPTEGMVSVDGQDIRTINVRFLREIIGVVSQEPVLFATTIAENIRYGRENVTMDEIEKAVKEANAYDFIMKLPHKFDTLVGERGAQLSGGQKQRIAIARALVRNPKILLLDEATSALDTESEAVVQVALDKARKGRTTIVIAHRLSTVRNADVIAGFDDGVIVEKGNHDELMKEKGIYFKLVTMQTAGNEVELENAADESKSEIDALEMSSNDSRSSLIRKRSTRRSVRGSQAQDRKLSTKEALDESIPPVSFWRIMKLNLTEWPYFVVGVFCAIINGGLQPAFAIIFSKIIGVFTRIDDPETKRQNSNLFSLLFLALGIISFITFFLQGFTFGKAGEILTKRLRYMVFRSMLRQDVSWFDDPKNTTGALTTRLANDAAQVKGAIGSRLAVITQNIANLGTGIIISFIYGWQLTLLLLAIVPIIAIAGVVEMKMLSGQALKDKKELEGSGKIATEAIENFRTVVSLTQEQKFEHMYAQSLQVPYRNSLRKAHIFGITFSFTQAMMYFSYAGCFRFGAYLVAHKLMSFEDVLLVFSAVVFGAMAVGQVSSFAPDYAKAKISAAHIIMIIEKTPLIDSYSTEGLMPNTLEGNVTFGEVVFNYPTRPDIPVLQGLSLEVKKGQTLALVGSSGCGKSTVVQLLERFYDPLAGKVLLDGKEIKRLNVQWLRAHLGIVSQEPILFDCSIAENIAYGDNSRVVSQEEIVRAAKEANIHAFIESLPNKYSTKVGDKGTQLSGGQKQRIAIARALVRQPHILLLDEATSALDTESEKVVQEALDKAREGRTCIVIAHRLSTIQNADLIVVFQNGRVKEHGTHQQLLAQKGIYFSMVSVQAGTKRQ

SMILES | IC50 [nM]
CC(=O)O[C@@H]1[C@@H](C)[C@H]2[C@@H]([C@H]3[C@@H](OC(=O)c4ccccc4)[C@H](C)C[C@@]31OC(C)=O)[C@]1(C)C=CC(=O)C(C)(C)[C@H]21 [compound 1, Heliosterpenoid A] | 1280
CC(=O)O[C@H]1[C@@H](C)[C@H]2[C@@H]([C@H]3[C@@H](OC(=O)c4ccccc4)[C@@H](C)C[C@@]31O)[C@]1(C)C(=O)C=CC(C)(C)[C@H]21 [compound 2, Heliosterpenoid B] | 1020
